How the values were obtained:
[1] = target: T1, Clec10a-Fc (Mus musculus, UniProt P49300); assay: Sugar conjugate (glycan) microarray analysis of Clec10a-Fc (Table 7); assay type: binding; details: for Signal value, Clec10a-Fc: glycan microarray probed with Clec10a-Fc; for Signal value, Clec10a-Fc with EDTA: glycan microarray probed with Clec10a-Fc with EDTA
T1 construct: cloning the extracellular region of mouse Clec10a into a pME18S expression vector; made in house; host or cells: HEK293T cells
T1 sequence (P49300 57-304 limits assumed): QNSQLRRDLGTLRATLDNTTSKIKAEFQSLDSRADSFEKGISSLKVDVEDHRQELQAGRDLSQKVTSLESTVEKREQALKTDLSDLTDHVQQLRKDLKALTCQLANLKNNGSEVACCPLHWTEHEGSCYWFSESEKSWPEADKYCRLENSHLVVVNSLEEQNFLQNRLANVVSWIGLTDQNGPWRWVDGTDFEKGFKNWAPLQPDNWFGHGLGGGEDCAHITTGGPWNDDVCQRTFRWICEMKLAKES
Experimental: A sugar conjugate microarray containing 98 sugar conjugates (Table 3) was prepared according to a known method using a non-contact microarray printing robot (MicroSys 4000; Genomic Solutions).

[2] = system: human IgG1; assay: Glycan microarray probed with human IgG1 (control of Table 7); assay type: binding

Signal value, Clec10a-Fc [1]	Signal value, Clec10a-Fc with EDTA [1]	SMILES	Signal value, human IgG1 [2]
7	0	CC(=O)N[C@@H]1[C@@H](O)[C@H](O[C@@H]2O[C@H](CO)[C@H](O)[C@H](O[C@]3(C(=O)O)C[C@H](O)[C@@H](NC(C)=O)[C@H]([C@H](O)[C@H](O)CO)O3)[C@H]2O)[C@@H](CO)O[C@H]1O [3′SLN]	0
5	0	CC(=O)N[C@H]1[C@H]([C@H](O)[C@H](O)CO)O[C@@](O[C@H]2[C@@H](O)[C@@H](CO)O[C@@H](O[C@H]3[C@H](O)[C@@H](O)[C@H](O)O[C@@H]3CO)[C@@H]2O)(C(=O)O)C[C@@H]1O [3′SL]	0
4	0	CC(=O)N[C@@H]1[C@@H](O[C@@H]2O[C@H](CO)[C@H](O)[C@H](O[C@]3(C(=O)O)C[C@H](O)[C@@H](NC(C)=O)[C@H]([C@H](O)[C@H](O)CO)O3)[C@H]2O)[C@H](O)[C@@H](CO)O[C@H]1O [3′SiaLec]	0
1	0	CC(=O)N[C@H]1[C@H]([C@H](O)[C@H](O)CO)O[C@@](OC[C@H]2O[C@@H](O[C@H]3[C@H](O)[C@@H](O)[C@H](O)O[C@@H]3CO)[C@H](O)[C@@H](O)[C@H]2O)(C(=O)O)C[C@@H]1O [6′SL]	0
1137	0	CC(=O)N[C@H]1[C@@H](O[C@@H]2[C@@H](O)[C@H](O)O[C@H](CO)[C@@H]2O)O[C@H](CO)[C@H](O)[C@@H]1O [A-di]	0
0	0	CC(=O)N[C@@H]1[C@@H](O)[C@H](O[C@@H]2O[C@H](CO)[C@H](O)[C@H](O[C@H]3O[C@H](CO)[C@H](O)[C@H](O)[C@H]3NC(C)=O)[C@H]2O[C@@H]2O[C@@H](C)[C@@H](O)[C@@H](O)[C@@H]2O)[C@@H](CO)O[C@H]1O [A]	0
0	0	CC(=O)N[C@@H]1[C@@H](O)[C@H](O)[C@@H](CO)O[C@H]1O [BGlcNAc]	205
0	0	CC(=O)N[C@@H]1[C@@H](O)[C@H](O[C@@H]2O[C@H](CO)[C@H](O)[C@H](O[C@H]3O[C@H](CO)[C@H](O)[C@H](O)[C@H]3O)[C@H]2O[C@@H]2O[C@@H](C)[C@@H](O)[C@@H](O)[C@@H]2O)[C@@H](CO)O[C@H]1O [B]	0
4824	0	CC(=O)N[C@@H]1[C@@H](O[C@@H]2O[C@H](CO)[C@H](O)[C@H](O)[C@H]2O)[C@@H](O)[C@@H](CO[C@@H]2O[C@H](CO)[C@@H](O)[C@H](O)[C@H]2NC(C)=O)O[C@@H]1O [Core2]	0
0	0	CC(=O)N[C@@H]1[C@@H](O[C@@H]2O[C@H](CO)[C@@H](O)[C@H](O)[C@H]2NC(C)=O)[C@@H](O)[C@@H](CO)O[C@@H]1O [Core3]	0
0	0	CC(=O)N[C@@H]1[C@@H](O[C@@H]2O[C@H](CO)[C@@H](O)[C@H](O)[C@H]2NC(C)=O)[C@@H](O)[C@@H](CO[C@@H]2O[C@H](CO)[C@@H](O)[C@H](O)[C@H]2NC(C)=O)O[C@@H]1O [Core4]	0
0	0	CC(=O)N[C@@H]1[C@@H](O[C@H]2O[C@H](CO)[C@H](O)[C@H](O)[C@H]2O)[C@@H](O)[C@@H](CO)O[C@@H]1O [Core8]	0
0	0	CC(=O)N[C@@H]1[C@@H](O[C@H]2O[C@H](CO)[C@H](O)[C@H](O)[C@H]2NC(C)=O)[C@@H](O)[C@@H](CO)O[C@H]1O [Forssman disaccharide]	0
